“Also recorded” adds a separate entry of the source. Read-outs that look alike come from different tables or passages of the source. Where a SMILES comes first, the peptide text is derived from it. Where no end group is shown, it is not given here. [ ]: non-standard residue; d: D form. The star is where a group is joined. Cypate = CC1(C)C(/C=C/C=C/C=C/C=C2/N(CCC(=O)*)c3ccc4ccccc4c3C2(C)C)=[N+](CCC(=O)O)c2ccc3ccccc3c21
Columns and labels:
[1] = system: A549 tumor; set-up: species or system mice; details: mouse, in vivo
Text: The hypothesis that the “RD” motif was solely responsible for the tumor uptake was further tested by injecting ^111In-DOTA-GRD [SEQ ID NO:15] (120 μCi; 1 Ci=37 GBq) into A549 tumor-bearing mice.

[2] = system: A549 tumor; assay: In vivo fluorescence optical imaging and ex vivo organ distribution in A549 tumor-bearing nude mice; details: for uptake / retention in A549 tumor: 0.3 μmol per kg via lateral tail vein, fluorescence imaging
Experimental: All in vivo studies were performed in compliance with the Washington University in St Louis Animal Study Committee's requirements for the care and use of laboratory animals in research. Nude mice (18-22 g) were anesthetized with xylazine/ketamine cocktail via intraperitoneal injection and placed in a supine position. The mice were injected subcutaneously with A549 cells (1×10^6) in the lower back of the mice. Tumor masses were palpable at 5-7 days post implant, which reached 5 mm in 10-15 days. Prior to injection of the probe, the mice were anesthetized as described above. A 29-gauge needle was used to inject the probes into the mouse via the lateral tail vein. The molecular probe (100 μL) was injected via the lateral tail vein at 0.3 μmol per kg of body weight. […] [SEQ ID NO:1] were constituted in a vial, and doses of 0.3 μmol per kg of body weight were injected into the A549 tumor-bearing mice.
A non-invasive in vivo continuous wave fluorescence imaging apparatus was used to visualize the distribution and preferential tissue uptake of the cypate-peptide molecular beacons in the nude mice (Achilefu (2004) Technol. Cancer Res. Treat. 3:393-409, incorporated herein by reference). Light from two laser diodes of nominal wavelength 780 nm and nominal power of 50 mW was launched into a fiber optic bundle. Two laser diodes were used to produce as much uniform illumination of the whole animal or organ parts as possible. The nominal 50 mW of incident power was reduced to about 44 mW at the output of the fiber optic bundle. A de-focusing lens in position after the bundle expanded the beam such that nearly the whole animal was illuminated. A Photometrics CCD camera (16 bit, 1024×1024 pixel, back illuminated, thermoelectric Peltier cooled with forced air) was used to capture the emitted photons. An interference filter (830 nm) was mounted in front of the CCD camera input lens such that only emitted fluorescent light from the contrast agent was imaged. Real-time acquisition, display and data processing software (WinView/32) was used to obtain the optical image. The samples were dissolved in 20% aqueous DMSO and animals were injected with doses of 0.3 μmol/kg body weight via the lateral tail vein. Injected volumes were 100 μL for each mouse. Data analysis consisted of subtracting (pixel by pixel) the pre-injection image from the post injection images, and displaying the false color results. Integration of the relative fluorescence intensities of tumor vs. surrounding tissues indicated the extent of selective uptake of the contrast agent. At the completion of the study, the mice were euthanized and some organ parts were excised and rinsed with water. The tissues were placed under the CCD camera and the fluorescence emission from each organ was measured after excitation with the 780 nm laser sources. Tissue parts, instead of whole organs, were used to minimize problems associated with depth-dependent non-linear fluorescence emission. A statistical program in the WinView package was used to estimate the mean fluorescence intensity per organ part.
In vivo optical imaging studies using the cypate-peptide optical probes were performed and analyzed as described above in Example 1. […]

[3] = Absorption and emission spectral properties in 20% aqueous DMSO; type: physicochemical
Experimental: The spectral properties of cypate and the cypate-peptide conjugates were determined in 20% aqueous DMSO, which solubilizes all the compounds. […] Absorbance measurements were performed with a Beckman Coulter DU 640 spectrophotometer. The fluorescence spectra were recorded on Fluorolog-3 fluorometer (HORIBA Jobin Yvon Inc., Edison, N.J.). To prepare the stock solutions, a high precision analytical balance was used to weigh >2 mg of each compound, which was dissolved in DMSO. The DMSO solutions were then diluted with water to obtain a final solution of 20% aqueous DMSO. An aliquot (known volume) of the solution was transferred to a cuvette with 1 μL precision micropipettes and diluted with 20% aqueous DMSO solvent mixture to give a working solution that absorbs at <1.0 absorbance unit. Aliquots of the working solution were diluted with 20% aqueous DMSO and used to determine the molar absorptivity of each compound. For fluorescence measurements, probe solutions with 0.1 absorbance units were used to minimize inner filter effects.
Previous studies have shown that this solvent mixture boosts fluorescence intensity and is well tolerated by rodents. Additionally, the dyes and their peptide conjugates are soluble in this solvent mixture, providing a common medium for spectral measurements.
Absorbance spectra were measured on a Beckman Coulter DU 640 UV-Visible spectrophotometer. Fluorescence spectra were recorded on a HORIBA Jobin Yvon Fluorolog-3 fluorometer. Stock solutions (1.0 mM) of the conjugates were prepared by dissolving each sample in 80% aqueous DMSO. UV-Vis and fluorescence measurements were carried out by adding 5.0 μL of the stock solutions via a micropipette into 3 mL of 20% aqueous DMSO in a quartz cuvette.

[4] = system: A549 cells; assay: Cellular internalization and blocking studies by fluorescence microscopy (Example 1); details: for internalization in A549 cells: 1 μM
[5] = target: T1, purified human αvβ3 integrin protein (Homo sapiens, UniProt P05106+P06756); assay: Competitive αvβ3 integrin receptor binding assay with 125I-echistatin tracer (Example 2)
T1 construct: purchased Chemicon International, Inc. (Temecula, Calif.)
Experimental: The binding affinities were measured based on the competitive binding between purified αvβ3 integrin (ABI) and peptide ligands. Echistatin is a polypeptide that binds irreversibly with high affinity and specificity to ABI. ^125I-echistatin was used as a tracer in ABI binding assays.
Receptor binding assays were performed by using purified human αvβ3 integrin protein from Chemicon International, Inc. (Temecula, Calif.). Assays were carried out using the Millipore Duropore membrane 96-well plates and the Millipore MultiScreen system (Bedford, Mass.). The 96-well membrane plate was blocked with 0.1% Polythylenimine blocking solution overnight at 4° C. ^125I-echistatin (50 nmol/L) was added to the binding buffer (50 mM Tris-HCl, pH 7.4, 100 mM NaCl, 2 mM CaCl2, 1 mM MgCl2, 1 mM MnCl2, 1% BSA) containing integrin protein (50 ng per well in 96-well membrane plate) and ligands in a total volume of 200 μL per well. The concentration range of ligand was between 0.01 μM and 100 μM. The mixtures were incubated for 2 h at room temperature, the ABI was then filtered by centrifugation at 1500 g and washed three times with 0.20 mL of ice-cold binding buffer. The filters containing radioactivity bound ABI were removed using a punch apparatus and counted using a Packard Cobra II Auto-gamma counter (Meriden, Conn.). […] Radiolabeling of ^125I-echistatin (Amersham Biosciences, Piscataway, N.J.) was carried out in a mixture of 0.25% BSA, 5.0% lactose, 0.21% citric acid and aprotinin (0.9 TIU/ml).

[6] = system: A549 cells; assay: CyQuant cytotoxicity and proliferation assay; type: cell-based, human; details: 48 hours
Experimental: Cells were seeded at 2.5×10^4 cells/well and grown in 96 well plates in the presence of 0−1.5×10^−5 M cypate conjugated peptides for 24 or 48 hours. Cell proliferation was measured using the CyQuant proliferation assay from Molecular Probes (Eugene, Oreg.) per the manufacturer's protocol. Briefly, after incubation the microplate was inverted to remove the media and frozen at −70° C. overnight. The microplate was thawed at room temperature and 200 μL of the CyQuant GR dye/cell-lysis buffer was added to each well. […]
Because the Cyquant assay is based on the adherence of a dye to nucleic acids, the assay is a measure of both proliferative and cytotoxic effects.

[7] = Table 2, read-out: IC50 (αvβ3 integrin binding affinities)

N=C(N)NCCC[C@H](NC(=O)CNC(=O)CN1CCN(CC(=O)O)CCN(CC(=O)O)CCN(CC(=O)O)CC1)C(=O)N[C@@H](CC(=O)O)C(=O)N[C@@H](CO)C(=O)N1CCC[C@H]1C(=O)N[C@@H](CCCCN)C(=O)O [^111In-DOTA-GRD, metal not drawn] (HELM PEPTIDE1{[O=C(O)CN1CCN(CC(=O)O)CCN(CC(=O)[*:2])CCN(CC(=O)O)CC1].G.R.D.S.P.K}$$$$V2.0)
clearance (scintigraphy) [1]: rapid renal clearance
localization of the material [1]: nearly all of the material localized in the bladder

CC1(C)C(/C=C/C=C/C=C/C=C2\N(CCCCS(=O)(=O)O)c3ccc4ccccc4c3C2(C)C)=[N+](CCCCS(=O)(=O)[O-])c2ccc3ccccc3c21 [indocyanine green, reference compound]
uptake / retention in A549 tumor [2]: None of the three non-ABI-specific probes were retained in the A549 tumor tissue

CC1(C)C(/C=C/C=C/C=C/C=C2/N(CCC(=O)O)c3ccc4ccccc4c3C2(C)C)=[N+](CCC(=O)[O-])c2ccc3ccccc3c21 [Cypate, cypate, reference compound]
^abεmax [3]: 244,400 cm^−1Mol^−1
^abλmax [3]: 786 nm
^emλmax [3]: 811 nm
internalization in A549 cells ([4]; 37° C.): did not internalize
uptake / retention in A549 tumor [2]: not retained in the tumor; also recorded: None of the three non-ABI-specific probes were retained in the A549 tumor tissue
time of clearance from blood by the liver ([2]; after injection): ≤ 4 h

CC(C)[C@@H]1NC(=O)[C@@H](Cc2ccccc2)NC(=O)[C@H](CC(=O)O)NC(=O)CNC(=O)[C@H](CCCNC(=N)N)NC(=O)[C@H](CCCCN)NC1=O [Cyclo(DPhe-Val-Lys-Arg-Gly-Asp)-OH] (HELM PEPTIDE1{R.G.D.[dF].V.K}$PEPTIDE1,PEPTIDE1,1:R1-6:R2$$$V2.0)
IC50 ([5]; Table 3, read-out: IC50): 1.89 µM

Cypate-3-GRDSPK ({Cypate‑3}-GRDSPK; listed as Homo sapiens) [Cyp-3-GRD]
^abεmax [3]: 128,538 cm^−1Mol^−1
^abλmax [3]: 684 nm
^emλmax [3]: 703 nm
internalization in A549 cells ([4]; 37° C.): internalized
cellular localization at 4° C. ([4]; A549 cells incubated at 4° C.): remained in the peripheral region of the cell membrane
translocation into the nucleus ([4]; A549 cells, 37° C.): did not translocate into the nucleus

cytate [reference compound]
uptake / retention in A549 tumor [2]: None of the three non-ABI-specific probes were retained in the A549 tumor tissue

CC1(C)C(=CC=CC=CC=CC2=[N+](CCC(=O)O)c3ccc4ccccc4c3C2(C)C)N(CCC(=O)N[C@H]2CSSC[C@@H](C(N)=O)NC(=O)[C@H](CC(=O)O)NC(=O)CNC(=O)[C@H](CCCNC(=N)N)NC2=O)c2ccc3ccccc3c21 [Cypate-cyclo(CRGDC)-NH2] (HELM PEPTIDE1{[CC1(C)C(/C=C/C=C/C=C/C=C2/N(CCC(=O)[*:2])c3ccc4ccccc4c3C2(C)C)=[N+](CCC(=O)O)c2ccc3ccccc3c21].C.R.G.D.C.[am]}$PEPTIDE1,PEPTIDE1,2:R3-6:R3$$$V2.0)
IC50 [5, 7]: 4.6 µM

CC(C)[C@@H]1NC(=O)[C@@H](Cc2ccccc2)NC(=O)[C@H](CC(=O)O)NC(=O)CNC(=O)[C@H](CCCNC(=N)N)NC(=O)[C@H](CCCCNC(=O)CCN2/C(=C/C=C/C=C/C=C/C3=[N+](CCC(=O)O)c4ccc5ccccc5c4C3(C)C)C(C)(C)c3c2ccc2ccccc32)NC1=O [Cyp-cyclo-RGD, Cypate-cyclo[RGDfVK^(Cypate)]] (cyclo(RGD[dF]VK(Cypate)))
IC50 [5, 7]: 79.5 µM
uptake / retention in A549 tumor [2]: preferentially localized
accumulation / retention in nontarget tissues ([2]; 24 h post injection): equally high
retention in the tumor, cyclic versus linear Cyp-RGD ([2]; 24 h post injection): higher by a factor of three
cytotoxicity (CyQuant), longer treatment [6]: some cytotoxicity

GRDSPK (listed as Homo sapiens) [GRD peptide]
blocking of Cyp-GRD uptake in the tumor by co-injection ([2]; equimolar, 0.3 μmol/kg body weight, 24 h post injection): unable to block

CC(C)[C@H](NC(=O)[C@@H](NC(=O)[C@@H]1CSSC[C@H](NC(=O)[C@H](N)Cc2ccccc2)C(=O)N[C@@H](Cc2ccc(O)cc2)C(=O)N[C@H](Cc2c[nH]c3ccccc23)C(=O)N[C@@H](CCCCN)C(=O)N[C@@H]([C@@H](C)O)C(=O)N1)[C@@H](C)O)C(=O)N[C@@H](CCCNC(=N)N)C(=O)NCC(=O)N[C@@H](CC(=O)O)C(N)=O [H-DPhe-Cyclo(Cys-Tyr-DTrp-Lys-Thr-Cys)-Thr-Val-Arg-Gly-Asp-NH2] (HELM PEPTIDE1{[dF].C.Y.[dW].K.T.C.T.V.R.G.D.[am]}$PEPTIDE1,PEPTIDE1,2:R3-7:R3$$$V2.0)
IC50 ([5]; Table 3, read-out: IC50): 0.722 µM

Source: patent US8053415B2, “Compounds having RD targeting motifs” (Washington University in St. Louis, priority 2005, dated 2011)
